Source: patent publication US7834023B2 (Portola Pharmaceuticals, Inc., priority 2006, dated 2010)

Each compound was assayed against T1, P2Y12 receptor (Homo sapiens, UniProt Q9H244) (assay: platelet ADP receptor binding assay (ARB): inhibition of [3H]2-MeS-ADP binding to platelets). Settings: [3H]2-MeS-ADP binding to apyrase-washed human platelets.
T1 construct: endogenous in cells; host or cells: human platelets (outdated from blood banks or fresh), apyrase-washed, whole
Description: 1. The Ability of Candidate Molecules to Inhibit the Binding of [^3H]2-MeS-ADP to the […] Receptor on Platelets was Determined Using a Radioligand Binding Assay.
Utilizing this assay the potency of inhibition of such compounds with respect to [^3H]2-MeS-ADP binding to whole platelets is determined. Under the conditions described in II (3) below, the binding of [^3H]2-MeS-ADP is solely due to the interaction of this ligand with the P2Y12 receptor, in that all the specific binding measured in this assay is competable with a P2Y12 antagonist (i.e., the specific binding is reduced to background levels by competition with an excess of P2Y12 antagonist, with no competition of binding when a P2Y1 antagonist is pre-incubated with the platelet preparation). [^3H]2-MeS-ADP binding experiments are routinely performed with outdated human platelets collected by standard procedures at hospital blood banks. Apyrase-washed outdated platelets are prepared as follows (all steps at room temperature, if not indicated otherwise):
Outdated platelet suspensions are diluted with 1 volume of CGS and platelets pelleted by centrifugation at 1900×g for 45 minutes. Platelet pellets are resuspended at 3-6×10^9 platelets/ml in CGS containing 1 U/ml apyrase (grade V, Sigma, St. Louis, Mo.) and incubated for 15 minutes at 37° C. After centrifugation at 730×g for 20 minutes, pellets are resuspended in Hepes-Tyrode's buffer containing 0.1% BSA (Sigma, St. Louis, Mo.) at a concentration of 6.66×10^8 platelets/ml. Binding experiments are performed after >45 minutes resting of the platelets.
Alternatively, binding experiments are performed with fresh human platelets prepared as described in section I (Inhibition of ADP-Mediated Platelet Aggregation in vitro), except that platelets are resuspended in Hepes-Tyrode's buffer containing 0.1% BSA (Sigma, St. Louis, Mo.) at a concentration of 6.66×10^8 platelets/mil. Very similar results are obtained with fresh and outdated platelets.
A platelet ADP receptor binding assay (ARB) using the tritiated potent agonist ligand [^3H]2-MeS-ADP (Jantzen, H. M. et al. (1999) Thromb. Hemost. 81:111-117) has been adapted to the 96-well microtiter format. In an assay volume of 0.2 ml Hepes-Tyrode's buffer with 0.1% BSA and 0.6% DMSO, 1×10^8 apyrase-washed platelets are preincubated in 96-well flat bottom microtiter plates for 5 minutes with serial dilutions of test compounds before addition of 1 nM [^3H]2-MeS-ADP ([^3H]2-methylthioadenosine-5′-diphosphate, ammonium salt; specific activity 20-50 Ci/mmole, obtained by custom synthesis from Amersham Life Science, Inc., Arlington Heights, Ill., or NEN Life Science Products, Boston, Mass.). Total binding is determined in the absence of test compounds. Samples for nonspecific binding may contain 10 μM unlabelled 2-MeS-ADP (RBI, Natick, Mass.). After incubation for 15 minutes at room temperature, unbound radioligand is separated by rapid filtration and two washes with cold (4-8° C.) Binding Wash Buffer (10 mM Hepes pH 7.4, 138 mM NaCl) using a 96-well cell harvester (Minidisc 96, Skatron Instruments, Sterling, Va.) and 8×12 GF/C glassfiber filtermats (Printed Filtermat A, for 1450 Microbeta, Wallac Inc., Gaithersburg, Md.). The platelet-bound radioactivity on the filtermats is determined in a scintillation counter (Microbeta 1450, Wallac Inc., Gaithersburg, Md.). Specific binding is determined by subtraction of non-specific binding from total binding, and specific binding in the presence of test compounds is expressed as % of specific binding in the absence of test compound dilutions. IC50s were derived by non-linear regression analysis.

T1 sequence (Q9H244 whole entry): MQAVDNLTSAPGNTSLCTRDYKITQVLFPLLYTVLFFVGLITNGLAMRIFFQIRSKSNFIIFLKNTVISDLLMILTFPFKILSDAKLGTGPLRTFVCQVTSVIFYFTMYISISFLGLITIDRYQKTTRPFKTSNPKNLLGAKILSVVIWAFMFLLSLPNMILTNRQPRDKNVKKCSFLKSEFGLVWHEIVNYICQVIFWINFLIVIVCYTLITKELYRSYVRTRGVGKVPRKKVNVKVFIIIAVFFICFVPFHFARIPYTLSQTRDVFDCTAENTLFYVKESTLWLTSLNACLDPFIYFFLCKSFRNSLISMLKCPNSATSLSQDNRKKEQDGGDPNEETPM

Row | SMILES | IC50
1 | NC(=O)c1cn(-c2ccc(C(=O)NC(C(=O)O)c3ccc(Cl)s3)cc2)c(=O)c2ccccc12 (stereo not shown) [Compound 99] | > 500 nM
2 | CNc1cc2c(cc1F)C(=O)N(c1ccc(CC(=O)NC(C(=O)O)c3ccc(Cl)s3)cc1)CO2 (stereo not shown) [Compound 114, 2-(5-chlorothiophen-2-yl)-2-(2-(4-(6-fluoro-7-(methylamino)-4-oxo-2H-benzo[e][1,3]oxazin-3(4H)-yl)phenyl)acetamido)acetic acid] | > 500 nM
3 | CNc1cc2[nH]c(=O)n(-c3ccc(NC(=O)NC(C(=O)O)c4ccc(Cl)s4)cc3)c(=O)c2cc1F (stereo not shown) [Compound 110, 2-(5-chlorothiophen-2-yl)-2-(3-(4-(6-fluoro-7-(methylamino)-2,4-dioxo-1,2-dihydroquinazolin-3(4H)-yl)phenyl)ureido)acetic acid] | > 500 nM
4 | N#Cc1cn(-c2ccc(C(=O)NC(C(=O)O)c3ccc(Cl)s3)cc2)c(=O)c2ccccc12 (stereo not shown) [Compound 100, 2-(5-chlorothiophen-2-yl)-2-(4-(4-cyano-1-oxoisoquinolin-2(1H)-yl)benzamido)acetic acid] | > 500 nM
5 | O=C(NC(C(=O)O)c1ccc(Cl)s1)c1ccc(N2COc3ccccc3C2=O)cc1 (stereo not shown) [Compound 83, 2-(5-chlorothiophen-2-yl)-2-(4-(4-oxo-2H-benzo[e][31]oxazin-3(4H)-yl)benzamido)acetic acid] | > 500 nM
6 | COc1ccc2c(=O)n(-c3ccc(C(=O)NC(C(=O)O)c4ccc(Cl)s4)cc3)ccc2c1 (stereo not shown) [Compound 101, 2-(5-chlorothiophen-2-yl)-2-(4-(6-methoxy-1-oxoisoquinolin-2(1H)-yl)benzamido)acetic acid] | > 500 nM
7 | CCOC(=O)C(NC(=O)c1ccc(-n2c(=O)[nH]c3cc(NC)c(F)cc3c2=O)cc1)c1ccc(Cl)s1 (stereo not shown) [Compound 26, ethyl 2-(5-chlorothiophen-2-yl)-2-(4-(6-fluoro-7-(methylamino)-2,4-dioxo-1,2-dihydroquinazolin-3(4H)-yl)benzamido)acetate] | > 500 nM
8 | CNc1cc2[nH]c(=O)n(-c3ccc(C(=O)NC(c4cccc(OC(F)(F)F)c4)c4nnn[nH]4)cc3)c(=O)c2cc1F (stereo not shown) [Compound 31] | > 500 nM
9 | CNc1cc2[nH]c(=O)n(-c3ccc(C(=O)NC(c4cc(Cl)cc(Cl)c4)c4nnn[nH]4)cc3)c(=O)c2cc1F (stereo not shown) [Compound 30, N-((3,5-dichlorophenyl)(1H-tetrazol-5-yl)methyl)-4-(6-fluoro-7-(methylamino)-2,4-dioxo-1,2-dihydroquinazolin-3(4H)-yl)benzamide] | > 500 nM
10 | CNc1cc2[nH]c(=O)n(-c3ccc(C(=O)NC(c4ccc(Cl)cc4)c4nnn[nH]4)cc3)c(=O)c2cc1F (stereo not shown) [Compound 12, N-((4-chlorophenyl)(1H-tetrazol-5-yl)methyl)-4-(6-fluoro-7-(methylamino)-2,4-dioxo-1,2-dihydroquinazolin-3(4H)-yl)benzamide] | > 500 nM
11 | COc1cc2ccn(-c3ccc(C(=O)NC(C(=O)O)c4ccc(Cl)s4)cc3)c(=O)c2cc1F (stereo not shown) [Compound 92, 2-(5-chlorothiophen-2-yl)-2-(4-(7-fluoro-6-methoxy-1-oxoisoquinolin-2(1H)-yl)benzamido)acetic acid] | > 500 nM
12 | CNc1cc2c(cc1F)C(=O)N(c1ccc(CC(=O)NC(C(=O)N3CCCC3)c3ccc(Cl)s3)cc1)CO2 (stereo not shown) [Compound 121, N-(1-(5-chlorothiophen-2-yl)-2-oxo-2-(pyrrolidin-1-yl)ethyl)-2-(4-(6-fluoro-7-(methylamino)-4-oxo-2H-benzo[e][1,3]oxazin-3(4H)-yl)phenyl)acetamide] | > 500 nM

Other lines, results leading:

Row | IC50 | SMILES
13 | 50 to 500 nM | CNc1cc2[nH]c(=O)n(-c3ccc(C(=O)NC(C(=O)O)c4ccc(Cl)s4)s3)c(=O)c2cc1F (stereo not shown) [Compound 112, 2-(5-chlorothiophen-2-yl)-2-(5-(6-fluoro-7-(methylamino)-2,4-dioxo-1,2-dihydroquinazolin-3(4H)-yl)thiophene-2-carboxamido)acetic acid]
14 | > 500 nM | CNc1cc2[nH]c(=O)n(-c3ccc(C(=O)NC(Cc4cccs4)C(=O)O)cc3)c(=O)c2cc1F (stereo not shown) [Compound 9, 2-(4-(6-fluoro-7-(methylamino)-2,4-dioxo-1,2-dihydroquinazolin-3(4H)-yl)benzamido)-3-(thiophen-2-yl)propanoic acid]
15 | > 500 nM | CNc1cc2[nH]c(=O)n(-c3ccc(C(=O)NC(C(=O)O)c4ccc(Cl)s4)cc3OC)c(=O)c2cc1F (stereo not shown) [Compound 51, 2-(5-chlorothiophen-2-yl)-2-(4-(6-fluoro-7-(methylamino)-2,4-dioxo-1,2-dihydroquinazolin-3(4H)-yl)-3-methoxybenzamido)acetic acid]
16 | 50 to 500 nM | CNc1cc2[nH]c(=O)n(-c3ccc(C(=O)NCc4ccc(Cl)s4)cc3)c(=O)c2cc1F [Compound 4, N-((5-chlorothiophen-2-yl)methyl)-4-(6-fluoro-7-(methylamino)-2,4-dioxo-1,2-dihydroquinazolin-3(4H)-yl)benzamide]
17 | 50 to 500 nM | CNc1cc2c(cc1F)C(=O)N(c1ccc(C(=O)N[C@@H](Cc3ccccc3)C(=O)O)cc1)CO2 [Compound 60, (S)-2-(4-(6-fluoro-7-(methylamino)-4-oxo-2H-benzo[e][1,3]oxazin-3(4H)-yl)benzamido)-3-phenylpropanoic acid]
18 | 50 to 500 nM | CNc1cc2[nH]c(=O)n(-c3ccc(C(=O)NC(C(=O)O)c4ccc(Cl)s4)c(Cl)c3)c(=O)c2cc1F (stereo not shown) [Compound 43, 2-(2-chloro-4-(6-fluoro-7-(methylamino)-2,4-dioxo-1,2-dihydroquinazolin-3(4H)-yl)benzamido)-2-(5-chlorothiophen-2-yl)acetic acid]
19 | 50 to 500 nM | CNc1cc2[nH]c(=O)n(-c3ccc(C(=O)NC(CO)c4ccc(Cl)s4)cc3)c(=O)c2cc1F (stereo not shown) [Compound 36]
20 | 50 to 500 nM | CNc1cc2c(=O)n(-c3ccc(C(=O)NC(C(=O)O)c4ccc(Cl)s4)cc3)c(=O)[nH]c2cc1F (stereo not shown) [Compound 48, 2-(5-chlorothiophen-2-yl)-2-(4-(7-fluoro-6-(methylamino)-2,4-dioxo-1,2-dihydroquinazolin-3(4H)-yl)benzamido)acetic acid]
21 | 50 to 500 nM | CNc1cc2c(cc1F)C(=O)N(c1ccc(CC(=O)NC(C(=O)OC)c3ccc(Cl)s3)cc1)CO2 (stereo not shown) [Compound 118, methyl 2-(5-chlorothiophen-2-yl)-2-(2-(4-(6-fluoro-7-(methylamino)-4-oxo-2H-benzo[e][1,3]oxazin-3(4H)-yl)phenyl)acetamido)acetate]
22 | < 50 nM | CNc1cc2c(cc1F)C(=O)N(c1ccc(C(=O)N[C@@H](c3nnn[nH]3)c3ccc(Cl)s3)cc1)CO2 [Compound 87, N-((5-chlorothiophen-2-yl)(1H-tetrazol-5-yl)methyl)-4-(6-fluoro-7-(methylamino)-4-oxo-2H-benzo[e][1,3]oxazin-3(4H)-yl)benzamide]
23 | < 50 nM | O=C(NCc1ccc(Cl)s1)Nc1ccc(-n2c(=O)[nH]c3cc(NCc4ccc(F)cc4)ccc3c2=O)cc1 [Compound 107, 1-((5-chlorothiophen-2-yl)methyl)-3-(4-(7-(4-fluorobenzylamino)-2,4-dioxo-1,2-dihydroquinazolin-3(4H)-yl)phenyl)urea]
24 | 50 to 500 nM | CNc1cc2c(cc1F)C(=O)N(c1ccc(C(=O)NC(Cc3cccs3)C(=O)O)cc1)CO2 (stereo not shown) [Compound 64, 2-(4-(6-fluoro-7-(methylamino)-4-oxo-2H-benzo[e][1,3]oxazin-3(4H)-yl)benzamido)-3-(thiophen-2-yl)propanoic acid]
25 | 50 to 500 nM | CNc1cc2[nH]c(=O)n(-c3ccc(C(=O)NC(C(=O)O)c4cccc(Cl)c4)cc3)c(=O)c2cc1F (stereo not shown) [Compound 15, 2-(3-chlorophenyl)-2-(4-(6-fluoro-7-(methylamino)-2,4-dioxo-1,2-dihydroquinazolin-3(4H)-yl)benzamido)acetic acid]
